Data published in patent US11905268B2, “Anthranilic acid derivatives and their use in the treatment of human cancers” (UNIVERSITY OF CENTRAL FLORIDA RESEARCH FOUNDATION, INC., priority 2018, dated 2024).
Read-outs that look alike come from different tables or passages of the source.

Tests used:
[1] = system: L3.6pl cells; assay: cells; format: cell-based; settings: for IC50: Homo sapiens, L3.6pl; for L3.6pl MTC: maximum tolerated concentration where cells are >90% viable
[2] = system: CHO cells; assay: Ant44 rescue assay in CHO cells (Assay 1); format: cell-based, Chinese hamster; settings: for EC50 / IC50: Cricetulus griseus; for Ant44 EC40: Table 1
Protocol: CHO K1 cells were grown in growth medium (RPMI+10% FBS+1×P/S+1% l-glutamine) to 70% confluency, washed in PBS and trypsinized. Cells were plated in assay medium (serum free RPMI+2% FBS+1×l-glutamine+1×P/S+[…] aminoguanidine) at 50000 cells/mL for 200 cells per well in 4 ul using a Thermo Multidrop Combi into a 1536-well white Aurora plate.
Ant44 is a cytotoxic polyamine, i.e., N^1-(9-anthracenyl)-homospermidine. A non-toxic PTI compound would block entry or intracellular trafficking of the Ant44 toxin and rescue the cells back to high viability. Therefore, this screen tested for compounds which rescued cells from Ant44 toxicity. […] This was followed by adding 10 uL of 10 uM Ant44 (FAC 2 uM) in assay medium with a Beckman BioRAPTR FRD dispenser or 10 uL of cells added in assay medium (positive control).

[3] = system: CHO cells; assay: Cytotoxicity screen in CHO cells; settings: for IC50 at 48 h: Chinese hamster, CHO K1 cells; for Tox (Ant44) / tox (DFMO Assay): toxic above the stated concentration; for Tox (Ant44): listed with Ant44 assay; for tox (DFMO Assay): listed with DFMO assay
Protocol: CHO K1 cells were grown in growth medium to 70% confluency and washed in PBS and trypsinized. […] Cells were spun at 100×g for 1 minute and incubated at 37° C. in a humidified CO2 incubator for 24 hours. […] Cellular ATP content was then assayed by adding 3 uL of ATPLite with a Beckman BioRAPTR FRD dispenser and incubated for 10 minutes at room temperature. Plates were spun at 200×g for 1 minute and read on a Perkin Elmer Viewlux multimode plate reader using luminescence mode. This assay was used for testing dose-response of dry powders.
CHO K1 cells were grown in growth medium to 70% confluency and washed in PBS and trypsinized. Cells were plated in assay medium at 10000 cells/mL for 200 cells per well using a Thermo Multidrop Combi in 20 uL into a white Greiner plate. Cells were spun at 100×g for 1 minute and incubated at 37° C. in a humidified CO2 incubator for 24 hours. […] This was followed by adding by 10 μL of assay medium to all wells with a Beckman BioRAPTR FRD dispenser. The plates were spun at 200×g for 1 minute and incubated at 37° C. in a humidified 5% CO2 incubator for 48 hours. Cellular ATP content was then assayed by adding 20 μL of ATPLite with a Beckman BioRAPTR FRD dispenser and incubated for 10 min at room temperature. Plates were spun at 200×g for 1 minute and read on a Perkin Elmer Envision for multimode plate reader using luminescence mode. Duplicates were run for each compound concentration, and the curves represent the average of the duplicates as percent viability.
The final compound concentration was either 20 μM or 10 μg/mL (depending upon the compound source). A successful PTI in Assay 1 would block the uptake of the toxic Ant44 probe and rescue the cells back to >90% relative growth vs an untreated control. It was critical to also evaluate the toxicity of the PTI by itself as a toxic PTI would give a false negative in Assay1 (and a false positive in Assay 2). […] Assay 2 then evaluated the ability of the compound to inhibit the uptake of a rescuing dose of Spermidine (Spd, 1 μM) into DFMO-treated CHO cells.

[4] = system: DFMO treated Chinese hamster ovary (CHO) cells; assay: DFMO/spermidine rescue assay in CHO cells (Assay 2); format: cell-based
Protocol: In the reconfirmation assay compounds were run in quadruplicate. […] A PTI compound is expected to block the entry or disrupt the intracellular trafficking of spermidine and inhibit the ability of spermidine to rescue the growth or viability of DFMO treated cells.
DFMO/Spermidine assay Here cells were treated with an inhibitor of polyamine biosynthesis (DFMO) and rescued back to high viability by the presence of exogenous polyamine (spermidine). Putative PTI compounds were screened for their ability to block the entry or intracellular trafficking of exogenous spermidine (or otherwise disrupt the intracellular trafficking of spermidine) by measuring cell viability in the presence of DFMO+spermidine+PTI compound. […] This was followed by adding 10 μL of […] and 5 μM spermidine (FAC 5 mM DFMO and 1 μM spermidine) in assay medium with a Beckman BioRAPTR FRD dispenser or 10 μL of 5 mM DFMO added in assay medium (positive control). […] A PTI compound is expected to block the entry or disrupt the intracellular trafficking of spermidine and inhibit the ability of spermidine to rescue the growth or viability of DFMO treated cells Cytotoxicity

[5] = read-out: IC50 values (toxicity profile)
[6] = relative growth after 72 h, read-out: L3.6pl IC50
[7] = CHO, Table 7, read-out: SAR IC50 Ant44 assay
[8] = Table 1 HTS top hits, CHO cells, read-out: Ant44 EC50
[9] = Cricetulus griseus, CHO, Table 7, read-out: SAR IC50 DFMO assay
[10] = Table 1 HTS top hits, CHO cells
[11] = Cricetulus griseus, Table 1 HTS top hits, CHO cells, read-out: DFMO Assay IC50

## COc1ccccc1C(=O)Nc1ccc(N2CCN(c3ccccc3OC)CC2)cc1C(=O)O [ChemDiv F687-0882]
[1]; [5]
  IC50: > 38 µM
[1]; [6]
  IC50: > 50 µM
[1]
  L3.6pl MTC: 9 µM

## COc1ccc(C(=O)Nc2ccc(N3CCCN(c4ncccn4)CC3)cc2C(=O)O)cc1 [SBI-0800691]
[2]; CHO cells
  activity in Ant44 assay: robust Ant44 uptake inhibition activity
[2]; CHO, Table 3, read-out: Ant44 rescue EC50 CHO
  EC50: ~11 µM
[2]; [7]
  IC50: 12 µM
[2]; [8]
  EC50: 10 to 15 µM
[2]; Table 5B, CHO cells, read-out: Ant44 IC50
  IC50: 12 µM
[3]
  IC50 at 48 h: > 40 µM
[3]; hamster
  MTD CHO: >32 µM
[3]; CHO cells
  Tox (Ant44): No tox
  tox (DFMO Assay): No tox
[4]; [9]
  IC50: > 40 µM
[4]; [10]
  DFMO Assay IC50: No effect
[4]; Table 3, in CHO
  Active in DFMO assay?: No in CHO
[4]; Table 5B
  DFMO/CHO IC50: trace

## COc1ccc(C(=O)Nc2ccc(N3CCN(c4cc(Cl)ccc4C)CC3)cc2C(=O)O)cc1 [SBI-0754479, 5-(4-(5-chloro-2-methylphenyl)piperazin-1-yl)-2-(4-methoxybenzamido)benzoic acid]
[2]; [7]
  IC50: > 40 µM
[3]
  IC50 at 48 h: 13 µM
[1]; [6]
  IC50: 16.8 ± 0.1 µM
[1]
  L3.6pl MTC: 8 µM
[4]; [9]
  IC50: 8 µM

## CCN(CC)C(=O)CN1CCN(c2ccc(NC(=O)c3ccc(OC)cc3)c(C(=O)O)c2)CC1 [SBI-0800690]
[2]; [7]
  IC50: > 40 µM
[2]; [10]
  Ant44 EC50: SBI- 0800690.0001 No effect
[3]
  IC50 at 48 h: 28 µM
[3]; CHO cells
  tox (DFMO Assay): SBI- 0800690.0001 (IC50 ~20, tox >20) μM
[4]; [9]
  IC50: > 40 µM
[4]; [11]
  IC50: ~20 µM

## Cc1ccc(C(=O)Nc2ccc(N3CCN(c4cc(Cl)ccc4C)CC3)c(C(=O)O)c2)cc1 [SBI-0800669]
[2]; [7]
  IC50: > 40 µM
[2]; [10]
  Ant44 EC50: SBI- 0800669.0001 No effect
[3]
  IC50 at 48 h: 12 µM
[3]; CHO cells
  tox (DFMO Assay): > 10 µM
[4]; [9]
  IC50: 5 µM
[4]; [11]
  IC50: 2 to 5 µM

## COc1ccccc1C(=O)Nc1ccc(N2CCN(c3cc(Cl)ccc3C)CC2)cc1C(=O)O [SBI-0351221, 5-(4-(5-chloro-2-methylphenyl)piperazin-1-yl)-2-(2-methoxybenzamido)benzoic acid]
[2]; [7]
  IC50: 2 µM
[2]; [8]
  EC50: 10 µM
[3]
  IC50 at 48 h: 19 µM
[3]; CHO cells
  Tox (Ant44): SBI- 0351221.0002 (10 EC50) Tox >10 μM
  tox (DFMO Assay): SBI- 0351221.0002 (IC50 ~10), toxic >10 μM
[4]; [9]
  IC50: 21 µM
[4]; [11]
  IC50: ~10 µM

## COc1ccccc1N1CCN(c2ccc(NC(=O)c3cccs3)cc2C(=O)O)CC1 [SBI-0800666]
[2]; [7]
  IC50: > 40 µM
[2]; [10]
  Ant44 EC50: SBI- 0800666.0001 No effect
[3]
  IC50 at 48 h: > 40 µM
[4]; [9]
  IC50: 27 µM
[4]; [11]
  IC50: 20 to 32 µM

## COc1ccccc1C(=O)Nc1ccc(N2CCN(c3ccccc3)CC2)cc1C(=O)O [ChemDiv F687-0884]
[1]; [5]
  IC50: > 38 µM
[1]; [6]
  IC50: 46.3 ± 0.02 µM
[1]
  L3.6pl MTC: 9 µM

## COc1ccccc1C(=O)Nc1ccc(CN2CCN(c3ccccn3)CC2)cc1C(=O)O [SBI-0814423, 2-(2-Methoxybenzamido)-5-((4-(pyridin-2-yl)piperazin-1-yl)methyl)benzoic acid]
[2]; [7]
  IC50: > 40 µM
[3]
  IC50 at 48 h: > 40 µM
[4]; [9]
  IC50: > 40 µM

## CCOC(=O)N1CCN(c2ccc(NC(=O)c3ccc(OC)cc3)c(C(=O)O)c2)CC1 [SBI-0800692]
[2]; [7]
  IC50: > 40 µM
[2]; CHO cells
  Ant44 EC40: SBI- 0800692.0001 (EC40 at 31) μM
[3]
  IC50 at 48 h: 34 µM
[3]; CHO cells
  tox (DFMO Assay): SBI- 0800692.0001 (IC50 ~20, tox >20) μM
[4]; [9]
  IC50: > 40 µM
[4]; [11]
  IC50: ~20 µM

## COc1ccc(C(=O)Nc2ccc(N3CCN(c4ccccc4)CC3)cc2C(=O)O)cc1 [SBI-0800679]
[2]; CHO, Table 2, Active in Ant44 assay?, read-out: Ant44 assay EC50 in CHO
  EC50: > 10 µM
[2]; [7]
  IC50: > 40 µM
[2]; CHO cells
  Ant44 EC40: SBI- 0800679.0001 EC40 near 20 μM, Tox >20 μM)
[2]; Table 2, in CHO
  Active in Ant44 assay?: Yes
[2]; Table 4B, CHO cells
  Ant44 IC50: trace
[3]; CHO cells
  general toxicity: modest level of toxicity
  Tox (Ant44): SBI- 0800679.0001 EC40 near 20 μM, Tox >20 μM)
  tox (DFMO Assay): > 15 µM
[3]; hamster
  CHO MTD: 10 µM
  CHO MTD EC50: (17) μM
[4]; CHO cells
  activity in DFMO assay: active
[4]; Cricetulus griseus, CHO, Table 2
  EC50: 10 µM
[4]; Cricetulus griseus, CHO, Table 4B, read-out: DFMO/CHO IC50
  IC50: 15 µM
[4]; [9]
  IC50: 15 µM
[4]; [11]
  IC50: 10 to 15 µM

## COC(=O)c1cc(N2CCN(c3cc(Cl)ccc3C)CC2)ccc1NC(=O)c1ccc(OC)cc1OC [SBI-0801723, methyl 5-(4-(5-chloro-2-methylphenyl)piperazin-1-yl)-2-(2,4-dimethoxybenzamido)benzoate]
[2]; [7]
  IC50: > 40 µM
[3]
  IC50 at 48 h: > 40 µM
[4]; [9]
  IC50: > 40 µM

## COc1ccccc1C(=O)Nc1ccc(N2CCN(c3ccccn3)CC2)cc1 [SBI-0814417, 2-methoxy-N-(4-(4-(pyridin-2-yl)piperazin-1-yl)phenyl)benzamide]
[2]; [7]
  IC50: > 40 µM
[3]
  IC50 at 48 h: 14 µM
[4]; [9]
  IC50: > 40 µM

## COc1ccc(C(=O)Nc2ccc(N3CCN(c4ccccc4Cl)CC3)cc2C(=O)O)cc1 [SBI-0800682]
[2]; [7]
  IC50: > 40 µM
[2]; CHO cells
  Ant44 EC40: ~15 µM
[3]
  IC50 at 48 h: 28 µM
[3]; CHO cells
  Tox (Ant44): > 20 µM
  tox (DFMO Assay): > 10 µM
[4]; [9]
  IC50: 27 µM
[4]; [11]
  IC50: 10 to 15 µM

## COc1ccc(S(=O)(=O)Nc2ccc(N3CCN(c4cc(Cl)ccc4C)CC3)cc2C(=O)O)cc1 [SBI-0801326, 5-(4-(5-chloro-2-methylphenyl)piperazin-1-yl)-2-(4-methoxyphenylsulfonamido)benzoic acid]
[2]; [7]
  IC50: > 40 µM
[3]
  IC50 at 48 h: > 40 µM
[4]; [9]
  IC50: > 40 µM

## COc1ccc(C(=O)Nc2ccc(N3CCN(c4ccc(OC)cc4)CC3)cc2C(=O)O)cc1 [SBI-0800680]
[2]; [7]
  IC50: > 40 µM
[2]; [8]
  EC50: 31 µM
[3]
  IC50 at 48 h: > 40 µM
[3]; CHO cells
  Tox (Ant44): ~5 µM
  tox (DFMO Assay): no tox
[4]; [9]
  IC50: > 40 µM
[4]; [11]
  IC50: > 31 µM

## COc1ccc(C(=O)Nc2ccc(N3CCN(c4ccc(C(C)=O)cc4)CC3)cc2C(=O)O)cc1 [SBI-0800674]
[2]; [7]
  IC50: > 40 µM
[2]; [10]
  Ant44 EC50: no effect
[3]
  IC50 at 48 h: 20 µM
[3]; CHO cells
  Tox (Ant44): > 5 µM
  tox (DFMO Assay): > 10 µM
[4]; [9]
  IC50: 21 µM
[4]; [11]
  IC50: ~5 µM
